Read-outs that look alike come from different tables or passages of the source.
Tests used:
[1] = Critical micelle concentration in propylene glycol caprylate (Capryol 90); format: physicochemical; settings: in propylene glycol caprylate (e.g., Capryol 90)
Method: Such high doses are generally unachievable with active pharmaceutical ingredients in the lipid like liquid fill solvent systems. […] The critical micelle concentration for GDC-0068 in propylene glycol caprylate (e.g., Capryol 90™) was determined to be 0.945 g/g.

[2] = forms isolated in Example 14 of U.S. Pat. No. 8,063,050; cited from earlier work
[3] = Hygroscopicity / water sorption analysis; format: physicochemical; settings: continuous water sorption profile at 25° C. from 0-90% RH
[4] = Variable temperature XRPD (thermal stability of the solid form); format: physicochemical; settings: heating, XRPD as a function of temperature
Method: Heating the product of Example 1 leads to loss in structure (diffracted peaks start to disappear in the 100-160° C. range) and the solid-state form becomes amorphous.
At temperatures ≧80° C., there is substantial loss of crystallinity. In both samples, they appear to be X-ray amorphous at 90° C. and above (due to melting of the lattice solvent and dissolution of the solid phase in it as confirmed by hot stage microscopy).

[5] = XRPD after exposure to water vapor (relative humidity); format: physicochemical; settings: room temperature, different RH conditions, 5-7 days
[6] = Solubility in solvents, antisolvents and liquid fill solvents; format: physicochemical; settings: organic solvent or mixture
Description: In one example, antisolvents include pentane, hexane, cyclohexane, heptane, ethyl acetate, iso-propyl acetate, methyl t-butyl ether (MTBE) and methyl iso-butyl ketone.
In one example, solvents include water, alcohols such as methanol, ethanol, isopropanol, 2-butanol, t-butanol and 2-methoxy ethanol, polar ethers such as tetrahydrofuran and 2-methyltetrahydrofuran, toluene, chloroform, dichloromethane, 1,2-dichloroethane and acetone.

CC(C)NC[C@@H](C(=O)N1CCN(c2ncnc3c2[C@H](C)C[C@H]3O)CC1)c1ccc(Cl)cc1 [GDC-0068, (S)-2-(4-chlorophenyl)-1-(4-((5R,7R)-7-hydroxy-5-methyl-6,7-dihydro-5H-cyclopenta[d]pyrimidin-4-yl)piperazin-1-yl)-3-(isopropylamino)propan-1-one]
critical micelle concentration [1]: 0.945 g/g
hygroscopicity [2]: hygroscopic

CC(C)NC[C@@H](C(=O)N1CCN(c2ncnc3c2[C@H](C)C[C@H]3O)CC1)c1ccc(Cl)cc1.Cl [Example 1, (S)-2-(4-chlorophenyl)-1-(4-((5R,7R)-7-hydroxy-5-methyl-6,7-dihydro-5H-cyclopenta[d]pyrimidin-4-yl)piperazin-1-yl)-3-(isopropylamino)propan-1-one monohydrochloride]
deliquescence point [3]: ~75 % RH
temperature range in which diffracted peaks start to disappear (loss in structure, becomes amorphous) [4]: 100-160 °C
effect of water vapor exposure on crystallinity [5]: loses crystallinity

CC(C)NC[C@@H](C(=O)N1CCN(c2ncnc3c2[C@H](C)C[C@H]3O)CC1)c1ccc(Cl)cc1.Cl [compound of formula I, (S)-2-(4-chlorophenyl)-1-(4-((5R,7R)-7-hydroxy-5-methyl-6,7-dihydro-5H-cyclopenta[d]pyrimidin-4-yl)piperazin-1-yl)-3-(isopropylamino)propan-1-one monohydrochloride]
solubility ([6]; antisolvents (organic liquids), pentane, hexane, cyclohexane, heptane, ethyl acetate, iso-propyl acetate, MTBE, methyl iso-butyl ketone, read-out: solubility in antisolvents): < 20 mg/mL
solubility ([6]; solvents (water and organic liquids), water, methanol, ethanol, isopropanol, 2-butanol, t-butanol, 2-methoxy ethanol, THF, 2-methyltetrahydrofuran, toluene, chloroform, dichloromethane, 1,2-dichloroethane, acetone, read-out: solubility in solvents): > 20 mg/mL

— patent US9505725B2, “Crystalline and mesomorphous forms of an AKT inhibiting pyrimidinyl-cyclopentane compound, compositions and methods thereof” (priority 2012, dated 2016)
